Series [1] can be described thus: Toxicity of compounds, MTT assay. In kind it is cell-based, human. As to conditions: human, foreskin fibroblasts, MTT, 48 hours, read-out: percent survival of uninfected human fibroblasts. The procedure: (§1) Toxicity of compounds. Toxicity of the different doses of the various analogues were performed at least in triplicates, using a modification of the Microculture Tetrazolium (MTT) assay and uninfected monolayers of human foreskin fibroblasts. Briefly, confluent cells were incubated for at least 24 hours in the 96-well flat bottom microtiterplates (~10^5 /200 μL/well) and incubated at 37° C. in 5% CO2, 95% air to allow the cells to attach. The medium was then replaced with 200 μL of fresh medium. […] The cultures were then incubated for 48 hours, after which 50 μL of sterile MTT solution (2 mg/1 mL PBS) was added to each well. MTT solution was sterilized by filtration through 0.22 μm filters (Costar, Cambridge, Mass.). After 4 hours incubation, the medium was removed and 100 μL of dimethylsulfoxide (DMSO) was added to each well and the plates were shaken gently for 2-3 minutes to dissolve the formed formazan crystals. The absorbance was measured at 540 nm, using a computerized microtiterplate reader (Themomax, Molecular Division)

For series [2], the system named is Toxoplasma gondii grown in human fibroblasts. In words: Incorporation of radiolabeled uracil (parasite survival). In kind it is cell-based. Conditions: for activity at 5 µM / activity at 10 µM / activity at 25 µM / activity at 50 µM: Toxoplasma gondii, Fibroblast, read-out: percent survival of Toxoplasma gondii grown in human fibroblasts. The method, then:
Incorporation of Radiolabeled Uracil. […] Uptake and incorporation of radiolabeled uracil into nucleic acids of T. gondii were carried out, at least in triplicates, in tissue culture, using monolayers of human foreskin fibroblasts infected with T. gondii. The fibroblasts were cultured in no more than 30 passages in Dulbecco's modified Eagle medium, containing 100 units/mL penicillin G and 100 μg/mL streptomycin sulfate, and 10% FBS, pH 7.2. Briefly, confluent cells (4-5 day incubation) were cultured for 24 hours in the 24-well flat bottom microtiterplates (~5×10^5 /1 mL/well) and incubated at 37° C. in 5% CO2, 95% air to allow the cells to attach. The medium was then removed and the cells were infected with isolated T. gondii in medium with 3% FBS (1 parasite/cell). After 1 hour incubation, the cultures were washed with media with 10% FBS to remove extracellular parasites. FBS was maintained at a final concentration of 10%. […] After an additional 18 hours incubation, the medium was replaced with 1 mL drug free media containing […] (2 μCi/mL) and incubated for another 6 hours, after which the media was removed. The fibroblasts were released from the wells by trypsinization with the addition of 200 μL trypsin/EDTA (2.5×) to each well. After 10 minutes incubation, 1 mL of ice cold 10% trichloroacetic acid (TCA) was added to each well. The plates were then placed on a shaker to insure the detachment of the cells. The suspended contents of each well were filtered through GF/A 2.4 cm glass microfiber filters (Whatman, Hillsboro, Oreg.), which were prewashed each with 1 mL double distilled H2 O and dried. After filtration, the filters were washed with 10 mL methanol, left to dry, and then placed in scintillation vials containing 5 mL of Econo-Safe scintillation fluor (Research Products International Corp., Mount Prospect, Ill.), and radioactivity was counted using an LS5801 Beckman scintillation counter.

Series [3] deals with Toxoplasma gondii RH strain tachyzoites. The series can be described thus: Chemotherapy of Toxoplasma-infected mice. In kind it is in vivo. The method, then:
Chemotherapy of Toxoplasma-Infected Mice. Female CD-1 mice, approximately 22 g (Charles River Laboratories, Wilmington, Mass.), were infected with 200 RH strain tachyzoites/mouse by i.p. injection. The treatment group received 100 mg/kg NBMPR-P i.p. injections every 8 hours on Days 0, 2, 4 and 5, in proportion of 0.1 ml/10 g. Mice were maintained under controlled temperature (25° C.) and light (12/12 hours, light/dark), food and water ad libitum, and survival was monitored daily.
Each mouse was infected with 200 tachyzoites and the treatment group received 100 mg/kg NBMPR-P i.p. injections every 8 hours on Days 0, 2, 4 and 5 in proportion of 0.1 ml/10 g. The survivorship of the treated mice can be improved by manipulation of the dose and regimen of NBMPR.

Series [4] deals with uninfected human foreskin fibroblasts. The series can be described thus: Toxicity of compounds, MTT assay. In kind it is cell-based. Conditions: for Toxicity to host cells (human fibroblasts), in words: therapeutic doses (5-50 μM tested). The method, then: as §1
Setting [5] is: 5 μM, [5,6-3H]uracil incorporation.
[6] abbreviates: 10 μM, [5,6-3H]uracil incorporation.
Where [7] appears, read: 25 μM, [5,6-3H]uracil incorporation.
[8] abbreviates: 50 μM, [5,6-3H]uracil incorporation.
The mark [9] stands for this setting: survivors/total, 100 mg/kg i.p. every 8 hours on Days 0, 2, 4 and 5.

“Also recorded” adds a separate entry of the source. Read-outs that look alike come from different tables or passages of the source.

For the compound `O=[N+]([O-])c1ccc(CNc2ncnc3c2ncn3[C@@H]2O[C@H](CO)[C@@H](O)[C@H]2O)cc1`, in series [1], the viability at 48 h, 5 µM stood at 104%; the viability at 48 h, 10 µM came to 102%; the viability at 48 h, 25 µM was 92.3%; the viability at 48 h, 50 µM turned out to be 107%. Further, in series [2] (setting [5]), the activity at 5 µM was 35.9%. In addition, the activity at 10 µM in series [2] (setting [6]) turned out to be 27.6%. Also, the activity at 25 µM in series [2] (setting [7]) came out at 21.6%. For the same compound, the activity at 50 µM in series [2] (setting [8]) is 8.4%.
Consider `[N-]=[N+]=Nc1ccc(CNc2ncnc3c2ncn3[C@@H]2O[C@H](CO)[C@@H](O)[C@H]2O)cc1`, for which, in series [1], the viability at 48 h, 5 µM amounted to 97.3%; the viability at 48 h, 10 µM came out at 90.3%; the viability at 48 h, 25 µM is 88.9%; the viability at 48 h, 50 µM came to 81.5%. Also, the activity at 5 µM in series [2] (setting [5]) was 36.9%. Further, the activity at 10 µM in series [2] (setting [6]) came out at 17%. Besides, the activity at 25 µM in series [2] (setting [7]) amounted to 15.1%. For the same compound, in series [2] (setting [8]), the activity at 50 µM was determined as 24.5%.
`O=[N+]([O-])c1ccc(CSc2ncnc3c2ncn3[C@@H]2O[C@H](COP(=O)(O)O)[C@@H](O)[C@H]2O)cc1` [NBMPR-P, 6-[4-nitrobenzylthio]-9-β-D-ribofuranosyl purine 5'-monophosphate]: in series [3] (increased from 6 days without treatment), the “life span of infected mice” value came out at 8 days. Besides, in series [3] (setting [9]), the “Survival Day 7” value is recorded as 3/3, the “Survival Day 8” value is on record as 2/3 and the “Survival Day 9” value is on record as 0/3. Further, the “Survival Day 6” value in series [3] (survivors/total, 100 mg/kg i.p. every 8 hours on Days 0, 2, 4 and 5, untreated 0/3) is recorded as 3/3. Besides, the “Effect on host (mammalian) cells, in words” value in series [4] (doses up to 100 μM) is reported as “did not affect host cells; also recorded: without affecting mammalian cells”. In addition, the “Toxicity to host cells (human fibroblasts), in words” value in series [4] is on record as “no significant toxic effect”. In addition, in series [1], the viability at 48 h, 5 µM worked out at 103%; the viability at 48 h, 10 µM was determined as 94.6%; the viability at 48 h, 25 µM stood at 93.6%; the viability at 48 h, 50 µM was 96.1%. In addition, the activity at 5 µM in series [2] (setting [5]) worked out at 75.3%. For the same compound, the activity at 10 µM in series [2] (setting [6]) was 53.3%. Besides, in series [2] (setting [7]), the activity at 25 µM worked out at 21.4%. Also, the activity at 50 µM in series [2] (setting [8]) amounted to 10.2%. Besides, in series [2] (in vitro), the “Effect on T. gondii grown in human fibroblasts, in words” value is given as “inhibited; also recorded: kill T. gondii grown in human fibroblasts in a dose dependent manner; also recorded: effectively eliminate T. gondii parasites”.
Consider `COc1ccc(C(=O)Nc2ncnc3c2ncn3[C@@H]2O[C@H](CO)[C@@H](O)[C@H]2O)cc1` [Compound 47, N^6 -(p-Methoxybenzolyl)adenosine (N^6 -anisoyladenosine)], for which, in series [1], the viability at 48 h, 5 µM was found to be 92.9%; the viability at 48 h, 10 µM is 92.6%; the viability at 48 h, 25 µM stood at 99.2%; the viability at 48 h, 50 µM is 97.4%. For the same compound, in series [2] (setting [5]), the activity at 5 µM is 94.2%. In series [2] (setting [6]), the activity at 10 µM was 93.1%. The activity at 25 µM in series [2] (setting [7]) turned out to be 104%. Moreover, in series [2] (setting [8]), the activity at 50 µM was 125%.
Turning to `Nc1ccc(S(=O)(=O)Nc2ncccn2)cc1` [Sulfadiazine, reference compound], in series [1], the viability at 48 h, 5 µM was 98.2%; the viability at 48 h, 10 µM came to 99.7%; the viability at 48 h, 25 µM came to 99.8%; the viability at 48 h, 50 µM worked out at 102%. Besides, in series [2] (setting [5]), the activity at 5 µM stood at 74.6%. The activity at 10 µM in series [2] (setting [6]) was 64.8%. Further, in series [2] (setting [7]), the activity at 25 µM amounted to 66.3%. For the same compound, the activity at 50 µM in series [2] (setting [8]) amounted to 66.3%.
For the compound `OC[C@H]1O[C@@H](n2cnc3c(NCc4ccccc4)ncnc32)[C@H](O)[C@@H]1O` [Compound 45, N^6 -Benzyladenosine], the “Toxicity to host cells (human fibroblasts), in words” value in series [4] is “toxic to host cells at therapeutic doses”. In series [1], the viability at 48 h, 5 µM stood at 46.3%; the viability at 48 h, 10 µM turned out to be 21.8%; the viability at 48 h, 25 µM worked out at 36.5%; the viability at 48 h, 50 µM was determined as 31%. Moreover, the activity at 5 µM in series [2] (setting [5]) was 62.8%. The activity at 10 µM in series [2] (setting [6]) came to 41.8%. The activity at 25 µM in series [2] (setting [7]) is 52.9%. Besides, in series [2] (setting [8]), the activity at 50 µM is 26.3%.
Take `O=[N+]([O-])c1ccc(C[Se]c2ncnc3c2ncn3[C@@H]2O[C@H](CO)[C@@H](O)[C@H]2O)cc1` [Compound 24, 6-(p-Nitrobenzyl)selenopurine riboside]: in series [1], the viability at 48 h, 5 µM turned out to be 89.3%; the viability at 48 h, 10 µM turned out to be 90.1%; the viability at 48 h, 25 µM was determined as 63.4%; the viability at 48 h, 50 µM was 39.6%. In addition, in series [2], the activity at 5 µM amounted to 67.8%, the activity at 10 µM was found to be 3.03%, the activity at 25 µM was 0% and the activity at 50 µM was determined as 0%.
On to `CCc1nc(N)nc(N)c1-c1ccc(Cl)cc1` [Pyrimethamine, reference compound], for which, in series [1], the viability at 48 h, 5 µM turned out to be 104%; the viability at 48 h, 10 µM came to 98.8%; the viability at 48 h, 25 µM was found to be 108%; the viability at 48 h, 50 µM was determined as 118%. For the same compound, the activity at 5 µM in series [2] (setting [5]) is 25.9%. For the same compound, in series [2] (setting [6]), the activity at 10 µM is 12.9%. Also, the activity at 25 µM in series [2] (setting [7]) is 10.2%. Further, the activity at 50 µM in series [2] (setting [8]) was found to be 13.8%.
As to `O=C(Nc1ncnc2c1ncn2[C@@H]1O[C@H](CO)[C@@H](O)[C@H]1O)c1ccccc1` [Compound 44, N^6 -Benzoyladenosine], in series [1], the viability at 48 h, 5 µM came out at 94.4%; the viability at 48 h, 10 µM turned out to be 94.1%; the viability at 48 h, 25 µM came to 97.6%; the viability at 48 h, 50 µM was determined as 99.3%. Moreover, in series [2] (setting [5]), the activity at 5 µM is 96.4%. Also, the activity at 10 µM in series [2] (setting [6]) was 94.6%. Further, the activity at 25 µM in series [2] (setting [7]) worked out at 112%. The activity at 50 µM in series [2] (setting [8]) came to 100%.
As to `Nc1ccc(CNc2ncnc3c2ncn3[C@@H]2O[C@H](CO)[C@@H](O)[C@H]2O)cc1` [Compound 46, N^6 -(p-Aminobenzyl)adenosine], in series [1], the viability at 48 h, 5 µM was 93.3%; the viability at 48 h, 10 µM stood at 91.9%; the viability at 48 h, 25 µM stood at 101%; the viability at 48 h, 50 µM is 101%. Besides, the activity at 5 µM in series [2] (setting [5]) was 100%. Besides, in series [2] (setting [6]), the activity at 10 µM was determined as 95.6%. For the same compound, the activity at 25 µM in series [2] (setting [7]) was found to be 108%. Also, the activity at 50 µM in series [2] (setting [8]) turned out to be 120%.

Source of the values: US5773424A, “Treatment of toxoplasmosis” (priority 1994, dated 1998).
